In one data set the target is T1, Adenosine receptor A1 (Homo sapiens, UniProt P30542).
T1 sequence (P30542 whole entry): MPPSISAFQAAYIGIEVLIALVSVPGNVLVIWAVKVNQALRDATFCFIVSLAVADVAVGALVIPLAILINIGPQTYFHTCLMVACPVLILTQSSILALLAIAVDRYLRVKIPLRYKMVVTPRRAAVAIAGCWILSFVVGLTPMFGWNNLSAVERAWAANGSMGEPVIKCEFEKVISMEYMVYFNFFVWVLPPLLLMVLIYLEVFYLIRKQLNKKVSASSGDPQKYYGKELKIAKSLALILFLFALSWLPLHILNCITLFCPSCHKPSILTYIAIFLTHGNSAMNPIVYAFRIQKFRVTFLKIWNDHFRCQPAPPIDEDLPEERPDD
The experiment in a line: Displacement of […] from human adenosine A1 receptor expressed in CHO cells after 60 mins by liquid scintillation analyzer. Format: cell-based.

The target in data set [1] is T2, Adenosine receptor A2a (Homo sapiens, UniProt P29274). Nature of the data set: Displacement of [3H]CGS21680 from human adenosine A2A receptor expressed in HEK293 cells after 60 mins by liquid scintillation analyzer. Format: cell-based. A general note: In a radioligand displacement assay an active substance lowers the binding of a labelled ligand.
T2 sequence (P29274 whole entry): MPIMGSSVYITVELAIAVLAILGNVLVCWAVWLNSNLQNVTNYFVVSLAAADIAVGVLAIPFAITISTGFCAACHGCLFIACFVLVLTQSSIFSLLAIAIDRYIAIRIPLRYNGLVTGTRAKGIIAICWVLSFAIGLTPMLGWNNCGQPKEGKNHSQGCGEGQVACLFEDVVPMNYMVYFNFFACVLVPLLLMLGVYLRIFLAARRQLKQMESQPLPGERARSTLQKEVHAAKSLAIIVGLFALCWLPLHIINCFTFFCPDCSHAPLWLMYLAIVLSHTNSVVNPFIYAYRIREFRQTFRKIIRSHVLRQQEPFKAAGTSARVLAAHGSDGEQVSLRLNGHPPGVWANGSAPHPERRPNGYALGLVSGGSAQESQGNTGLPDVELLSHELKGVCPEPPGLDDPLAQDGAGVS
The target in data set [2] is T3, Adenosine receptor A3 (Homo sapiens, UniProt P0DMS8).
T3 sequence (P0DMS8 whole entry): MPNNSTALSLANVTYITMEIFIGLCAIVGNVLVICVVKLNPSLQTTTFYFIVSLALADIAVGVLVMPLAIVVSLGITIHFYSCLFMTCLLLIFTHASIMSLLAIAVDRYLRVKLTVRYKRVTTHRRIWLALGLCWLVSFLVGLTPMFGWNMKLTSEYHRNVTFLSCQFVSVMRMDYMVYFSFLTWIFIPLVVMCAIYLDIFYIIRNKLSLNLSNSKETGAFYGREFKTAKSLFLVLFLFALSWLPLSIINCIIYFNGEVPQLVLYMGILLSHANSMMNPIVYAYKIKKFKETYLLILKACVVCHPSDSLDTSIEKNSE
The experiment in a line: Displacement of [125I]I-AB-MECA from human adenosine A3 receptor expressed in CHO cells after 60 mins by gamma counting analysis. In kind it is cell-based.

The target in data set [3] is T4, Adenosine receptor A3 (Homo sapiens) (UniProt P0DMS8).
T4 sequence (whole entry): T3 sequence (P0DMS8 whole entry)
Nature of the data set: Agonist activity at human adenosine A3 receptor expressed in CHO cells assessed as decrease in forskolin induced cAMP formation preincubated for 10 mins followed by forskolin challenge measured after 15 mins by AlphaScreen assay relative to adenosine-5'-N- ethyluronamide. Format: functional, cell-based. The arrangement: concentration or dose not given beside the values. (Cyclic AMP is a second messenger, typically raised through Gs and lowered through Gi signalling.)

The nature of data set [4]: Cytotoxicity against human MRC9 up to 20 uM. Format: cell-based.
Data set [5] deals with T5, Adenosine receptor A1 (Homo sapiens) (UniProt P30542).
T5 sequence (whole entry): T1 sequence (P30542 whole entry)
The experiment in a line: Displacement of […] from human adenosine A1 receptor expressed in CHO cells at 10 uM after 60 mins by liquid scintillation analyzer relative to control. Format: cell-based.

Data set [6] deals with T2, Adenosine receptor A2a. The experiment in a line: Displacement of [3H]CGS21680 from human adenosine A2 receptor expressed in HEK293 cells at 10 uM after 60 mins by liquid scintillation analyzer relative to control. Format: cell-based.
Another data set relates to Microglia. The experiment in a line: Antimigratory activity in Sprague-Dawley rat microglial cells assessed as inhibition of MCP-1 mediated cell migration at 100 nM after 20 mins by inverted confocal microscopy. Format: functional, cell-based.
Data set [7] is described as follows: Cytotoxicity against Sprague-Dawley rat microglial cells assessed as effect on cell viability up to 50 uM after 24 hrs by presto blue assay. Format: cell-based. To be noted: microglia.
Data set [8] addresses T3, Adenosine receptor A3. The experiment in a line: Agonist activity at human adenosine A3 receptor expressed in CHO cells assessed as decrease in forskolin induced cAMP formation preincubated for 10 mins followed by forskolin challenge measured after 15 mins by AlphaScreen assay. Format: functional, cell-based.

SMILES strings stand for the structures. Calls of active or inactive are those of the source. No cut-off for these calls is given here.

In general, Ki refers to the equilibrium dissociation constant of an inhibitor or competing ligand from its target. On to `CNC(=O)[C@H]1[Se][C@@H](n2cnc3c(NC4CCCC4)ncnc32)[C@H](O)[C@@H]1O`, for which the Ki is 25.2 nM on Adenosine receptor A1, 1090 nM at Adenosine receptor A2a [1] and 7.07 nM at Adenosine receptor A3 [2]. The Activity in [3] was determined as 77%.

Take `CNC(=O)[C@H]1[Se][C@@H](n2cnc3c(NC4CCC4)ncnc32)[C@H](O)[C@@H]1O`: the values for the Ki at Adenosine receptor A1, on Adenosine receptor A2a [1] and at Adenosine receptor A3 [2] were 37.5 nM, 1080 nM and 1.39 nM, respectively. In [3], the Activity is 82%.

As to `CNC(=O)[C@H]1[Se][C@@H](n2cnc3c(NCc4cccc(Br)c4)ncnc32)[C@H](O)[C@@H]1O`, the results for the inhibition constant Ki at Adenosine receptor A1, at Adenosine receptor A2a [1] and at Adenosine receptor A3 [2] were 220 nM, 560 nM and 0.9 nM, respectively. The Activity was 91% in [3] and “Non-Toxic” in data set [4].

By inhibition is commonly meant the share of the control response that was lost under treatment. Consider `CNC(=O)[C@H]1[Se][C@@H](n2cnc3ncnc(NCc4cccc(I)c4)c32)[C@H](O)[C@@H]1O`, for which the Ki at Adenosine receptor A3 [2] is 4180 nM. Also, the figures for the inhibition (in [5]; on Adenosine receptor A2a [6]) were 26% and 13%, respectively. Besides, the Activity in data set [3] came out at 0.2%.

As for `CNC(=O)[C@H]1[Se][C@@H](n2cnc3nc(Cl)nc(NCc4cccc(I)c4)c32)[C@H](O)[C@@H]1O`, the Ki on Adenosine receptor A3 [2] came to 7360 nM. Moreover, the inhibition is 7% in data set [5] and 23% on Adenosine receptor A2a [6]. The Activity in [3] is 14%.

Take `CNC(=O)[C@H]1[Se][C@@H](n2cnc3c(NCc4ccccc4Cl)ncnc32)[C@H](O)[C@@H]1O`: the Ki at Adenosine receptor A1 was 1090 nM; on Adenosine receptor A2a [1] it was 1160 nM; on Adenosine receptor A3 [2] it was 4.41 nM. In addition, in [3], the Activity came out at 85%.

With `CNC(=O)[C@H]1[Se][C@@H](n2cnc3c(NCc4ccc5ccccc5c4)ncnc32)[C@H](O)[C@@H]1O`, the Ki came to 440 nM at Adenosine receptor A1, 195 nM on Adenosine receptor A2a [1] and 1.76 nM on Adenosine receptor A3 [2]. Moreover, the Activity in data set [3] turned out to be 109%.

In the case of `CNC(=O)[C@H]1S[C@@H](n2cnc3c(NCc4cccc(I)c4)ncnc32)[C@H](O)[C@@H]1O`, the Activity in [3] stood at 100%.

Regarding `CNC(=O)[C@H]1[Se][C@@H](n2cnc3c(NCc4cccc(F)c4)nc(Cl)nc32)[C@H](O)[C@@H]1O`, the Ki at Adenosine receptor A3 [2] was determined as 3.35 nM. The inhibition in [5] amounted to 37.3%; at Adenosine receptor A2a [6], 42%. Also, in data set [3], the Activity was found to be 106%.

As for `CNC(=O)[C@H]1S[C@@H](n2cnc3c(NCc4cccc(I)c4)nc(Cl)nc32)[C@H](O)[C@@H]1O`, the inhibition result in the data set with Microglia is “Active”. In data set [7], the Activity result is “Non-Toxic”.

A word on the EC50: it is the concentration needed to bring the measured effect to its halfway point. For the molecule `CNC(=O)[C@H]1[Se][C@@H](n2cnc3c(NCc4cccc(I)c4)ncnc32)[C@H](O)[C@@H]1O`, the results for the Ki at Adenosine receptor A1, at Adenosine receptor A2a [1] and on Adenosine receptor A3 [2] were 480 nM, 1080 nM and 0.57 nM, respectively. The Activity was 91% in data set [3], “Non-Toxic” in data set [7] and “Non-Toxic” in data set [4]. Besides, the EC50 on Adenosine receptor A3 [8] worked out at 2.7 nM. The inhibition result with Microglia is “Active”.

For `CNC(=O)[C@H]1[Se][C@@H](n2cnc3c(NCc4ccccc4OC)ncnc32)[C@H](O)[C@@H]1O`, the Ki at Adenosine receptor A1 was found to be 1880 nM; on Adenosine receptor A2a [1], 1260 nM; at Adenosine receptor A3 [2], 3.75 nM. Further, in data set [3], the Activity was 97%.

In the case of `CNC(=O)[C@H]1[Se][C@@H](n2cnc3c(NCc4cccc(I)c4)nc(Cl)nc32)[C@H](O)[C@@H]1O`, the figures for the Ki at Adenosine receptor A1, at Adenosine receptor A2a [1] and at Adenosine receptor A3 [2] were 311 nM, 1200 nM and 4.2 nM, respectively. The Activity in data set [3] turned out to be 94.1%.

Turning to `CNC(=O)[C@H]1[Se][C@@H](n2cnc3c(NCc4cccc(Br)c4)nc(Cl)nc32)[C@H](O)[C@@H]1O`, the Ki worked out at 156 nM on Adenosine receptor A1, 1230 nM on Adenosine receptor A2a [1] and 1.99 nM at Adenosine receptor A3 [2]. The Activity in data set [3] was 106%.

As for `CNC(=O)[C@H]1[Se][C@@H](n2cnc3c(NC)ncnc32)[C@H](O)[C@@H]1O`, the Ki at Adenosine receptor A1 amounted to 2060 nM; on Adenosine receptor A3 [2] it was 1.49 nM. This molecule came in with an inhibition at Adenosine receptor A2a [6] of 18%. The Activity in [3] is 108%.

Turning to `CNC(=O)[C@H]1[Se][C@@H](n2cnc3c(NCc4cccc(Cl)c4)ncnc32)[C@H](O)[C@@H]1O`, the Ki at Adenosine receptor A1 stood at 570 nM; on Adenosine receptor A2a [1], 555 nM; on Adenosine receptor A3 [2], 3.45 nM. Further, the figures for the Activity in data set [3] and in data set [4] were 80% and “Non-Toxic”, respectively.

As for `CNC(=O)[C@H]1[Se][C@@H](n2cnc3c(NC4CC4)nc(Cl)nc32)[C@H](O)[C@@H]1O`, the Ki on Adenosine receptor A1 worked out at 186 nM; on Adenosine receptor A3 [2], 1.9 nM. Moreover, the inhibition at Adenosine receptor A2a [6] worked out at 30.3%. The Activity in data set [3] is 83.6%.

For `CNC(=O)[C@H]1[Se][C@@H](n2cnc3c(N[C@@H]4C[C@H]4c4ccccc4)ncnc32)[C@H](O)[C@@H]1O`, the Ki on Adenosine receptor A1 is 420 nM; on Adenosine receptor A2a [1], 2480 nM; at Adenosine receptor A3 [2], 3.93 nM. In [3], the Activity was 89%.

Regarding `CNC(=O)[C@H]1[Se][C@@H](n2cnc3c(NCc4cccc(Cl)c4)nc(Cl)nc32)[C@H](O)[C@@H]1O`, the Ki on Adenosine receptor A1 stood at 232 nM; on Adenosine receptor A2a [1], 238 nM; on Adenosine receptor A3 [2], 1.96 nM. Besides, the Activity in data set [3] was 99.7%.

For `CNC(=O)[C@H]1[Se][C@@H](n2cnc3c(NC4CC4)ncnc32)[C@H](O)[C@@H]1O`, the results for the Ki on Adenosine receptor A1 and on Adenosine receptor A3 [2] were 83.5 nM and 2.49 nM, respectively. The molecule also came in with an inhibition at Adenosine receptor A2a [6] of 54%. Also, the Activity in data set [3] amounted to 92%.

Turning to `CNC(=O)[C@H]1[Se][C@@H](n2cnc3c(NC4CCC4)nc(Cl)nc32)[C@H](O)[C@@H]1O`, the Ki at Adenosine receptor A1 came to 61.7 nM; on Adenosine receptor A2a [1] it was 899 nM; on Adenosine receptor A3 [2], 1 nM. The Activity in data set [3] was found to be 86.7%.

As to `CNC(=O)[C@H]1[Se][C@@H](n2cnc3c(NCc4cccc(F)c4)ncnc32)[C@H](O)[C@@H]1O`, the Ki at Adenosine receptor A1 is 3310 nM; at Adenosine receptor A2a [1], 1350 nM; on Adenosine receptor A3 [2] it was 2.3 nM. Also, the Activity was 74% in [3] and “Non-Toxic” in data set [4].

As to `CNC(=O)[C@H]1[Se][C@@H](n2cnc3c(NC4CCCC4)nc(Cl)nc32)[C@H](O)[C@@H]1O`, the Ki amounted to 59.4 nM on Adenosine receptor A1, 1120 nM on Adenosine receptor A2a [1] and 3.56 nM at Adenosine receptor A3 [2]. The Activity in data set [3] is 92.5%.

Values taken from ChEMBL document CHEMBL4007510, “N6-Substituted 5'-N-Methylcarbamoyl-4'-selenoadenosines as Potent and Selective A3 Adenosine Receptor Agonists with Unusual Sugar Puckering and Nucleobase Orientation” (J Med Chem, 2017).
